In patent US11498896B2 (The Broad Institute, Inc., priority 2014, dated 2022):
Like-named read-outs stand apart in the source and are kept apart here.

Key:
[1] = target: T1, human D2R/β-arrestin (Homo sapiens (Human), UniProt P14416); assay: cell-based; details: β-arrestin Antagonist, CHO-K1 cells expressing human D2R/β-arrestin; antagonist mode, quinpirole 130 nM
[2] = target: T1, human D2R/β-arrestin; assay: Gi/cAMP agonist assay (Lance Ultra cAMP, forskolin); assay type: cell-based; details: CHO-K1 cells expressing human D2R/β-arrestin; agonist mode, 2.5 μM forskolin
Protocol: Eu-cAMP tracer solution (10 μl, PerkinElmer, 360 μl of Tracer in 17.64 ml kit buffer) and ULight-anti-cAMP solution (10 μl, 120 μL antibody in 17.88 ml kit buffer) was then added to each well.

[3] = target: D2 receptor (Homo sapiens (Human), UniProt P14416); assay: D2 radioligand binding assay
D2 receptor, sequence (P14416 whole entry): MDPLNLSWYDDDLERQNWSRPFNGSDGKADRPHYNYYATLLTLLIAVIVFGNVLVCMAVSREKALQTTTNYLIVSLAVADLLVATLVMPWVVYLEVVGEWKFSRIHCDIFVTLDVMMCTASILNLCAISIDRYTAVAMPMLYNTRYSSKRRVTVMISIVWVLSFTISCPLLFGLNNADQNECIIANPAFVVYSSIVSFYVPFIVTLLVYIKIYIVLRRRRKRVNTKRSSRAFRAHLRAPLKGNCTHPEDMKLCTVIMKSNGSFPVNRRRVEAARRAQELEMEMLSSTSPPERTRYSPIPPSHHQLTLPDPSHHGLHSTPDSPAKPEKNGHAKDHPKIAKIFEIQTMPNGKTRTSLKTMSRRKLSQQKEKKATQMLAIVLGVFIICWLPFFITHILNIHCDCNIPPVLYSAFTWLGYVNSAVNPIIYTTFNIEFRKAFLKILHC

[4] = tested on: mice; assay: Amphetamine induced hyperactivity (AIH); assay type: in vivo; details: in comparison with vehicle
Protocol: Amphetamine Induced Hyperactivity Studies
Amphetamine-induced hyperactivity (AIH) was examined in eight identical open-field chambers (16.5″×16″×12″; AccuScan Instruments, Columbus, Ohio). Activity was detected by infrared beam breaks and recorded automatically by VersaMax software (AccuScan). Daily sessions were automatically binned in 5 minute intervals (VersaDat; AccuSacn) for statistical analysis. AIH was run over three consecutive days as follows:
Day 1: Mice were acclimated to the injection procedure by injecting 30 minutes prior to being placed in the chambers (to match the timing of day 3 compound administration). Mice were then placed into the open-field for 20 minutes and then removed for a saline injection (to match the timing of amphetamine administration on day 3). Mice were placed back into the open-field for an additional 30 minutes, at which point the mice were returned to their home cage.
Day 2 was run identically to Day 1, with the exception that the second day lasted for one hour (20 minutes→injection→40 minutes).
Day 3 was the amphetamine challenge day. Mice were pre-treated with D2 antagonist compounds (compound of Example 90) 30 minutes prior to being placed in the open field. After 20 minutes, mice were removed and challenged with amphetamine, following protocols known to one skilled in the art, for example Jones C. […]

[5] = tested on: D2R-mediated GSK3 signaling; assay: D2R-mediated GSK3 signaling in HEK293T cells; assay type: cell-based; details: HEK293T cells expressing both D2R and DISC1; 10 μM and 30 μM
Excerpt: Example 90 blocks β-arrestin signaling downstream of D2R and leads to modulation of GSK3 signaling.

[6] = Pharmacokinetic and brain distribution study in mice; assay type: in vivo; details: single intraperitoneal dose 30 mg/kg, male C57BL/6 mice
Protocol: Pharmacokinetic Studies on Mice Brains
Twelve male C57BL/6 mice were weighed and administered intraperitoneally with a dose of test compound (Examples 90, 157, 125) solution formulation. The dosing volume administered for the intraperitoneal route was at 10 mL/kg. Blood samples (approximately […]) were collected from retro-orbital plexus of each mouse under light isoflurane anesthesia at 0.08, 0.5, 1, 2, 4, and 8 hr. Following the collection of blood, plasma was also harvested by centrifugation and stored at −70° C. until analysis. After collection of plasma, the animals were euthanized and brain samples were isolated at 0.08, 0.5, 1, 2, 4, and 8 hr. Tissue samples (brain) were homogenized using ice-cold phosphate buffer saline (pH 7.4) and homogenates were stored below −70° C. until analysis. Total homogenate volume was three times the tissue weight. Concentrations of test compound in mouse plasma and brain samples were determined by LC-MS/MS method.
Identical extraction procedures were used for the plasma/brain homogenate study samples and the spiked plasma calibration standards: A 25 μL sample of either study sample (plasma/brain) or spiked calibration standard was added to individual pre-labeled micro-centrifuge tubes. A volume of 100 μL of IS (antipyrine, 500 ng/mL) prepared in acetonitrile was then added to the micro-centrifuge tubes, except in a sample used as a negative control where only acetonitrile was added and vortexed for 5 minutes. Samples were centrifuged for 20 minutes at the speed of 4000 rpm at 4° C. Following centrifugation, 100 μL of the supernatant was sampled from each centrifuge tube and transferred into insert vials. These vials remained within the auto-sampler for the LC/MS/MS analysis. Standards used for calibration were prepared by spiking 10 μL of the test compound in 190 μL of control (used as a negative control) mouse plasma/brain homogenate.
The plasma and brain concentration-time data of test compounds was provided for data analysis. The plasma and brain concentration-time data was then used for the pharmacokinetic analysis. Non-Compartmental-Analysis module in Phoenix® WinNonlin® (Version 6.3) was used to assess the pharmacokinetic parameters. Peak plasma concentrations (Cmax) and time for the peak plasma concentrations (Tmax) were the observed values. The areas under the concentration time curve (AUClast and AUCinf) were calculated by linear trapezoidal rule. The terminal elimination rate constant, ke was determined by regression analysis of the linear terminal portion of the log plasma concentration-time curve.
Illustrative results are presented in FIG. 2, the pharmacokinetic parameters are as follow: […]

[7] = target: T1, human D2R/β-arrestin; assay: cell-based; details: cAMP Antagonist, CHO-K1 cells expressing human D2R/β-arrestin; antagonist mode, 2.5 μM forskolin and 2.7 nM quinpirole
[8] = Brain protein binding; assay type: in vitro ADME
[9] = tested on: mice; assay: Rotarod performance; assay type: in vivo; details: 30 mg/kg IP in mice
Protocol: In the test, mice are placed on a horizontally oriented, rotating cylinder (rod) suspended above a cage floor, which is low enough not to injure the animal, but high enough to induce avoidance of fall. The mice naturally try to stay on the rotating cylinder, or rotarod, and avoid falling to the ground. Mice are administered clozaril at 3 mg/kg (test group); or a compound of Formula (I) (either 10 mg/kg or 30 mg/kg or vehicle). The mice have an average weight of 20 grams (as do the mice in all examples herein). The length of time that a given animal stays on this rotating rod is a measure of the animal's balance, coordination, physical condition, and motor-planning. The speed of the rotarod is mechanically driven, and is held constant.

[10] = target: T1, human D2R/β-arrestin; assay: β-arrestin agonist assay (PathHunter); assay type: cell-based; details: CHO-K1 cells expressing human D2R/β-arrestin; agonist mode
Protocol: The detection reagent (9.6 μL, Buffer:Emerald II:Galactor-Star in a 19:5:1 ratio, i.e., 14.06 mL:3.7 mL:0.74 mL=18.5 mL) was then added to the agonist plates.

T1 sequence (P14416 whole entry): as above

IC50 [1]: 100 to 1000 nM
EC50 [2]: < 100 nM
Ki [3]: 100 to 1000 nM
Brain AUC ([6]; brain): 34.2 µM·h
Brain Cmax ([6]; brain): 7230 nM
half-life ([6]; mouse, ip, brain, read-out: Brain T1/2 (converted)): 4.2 h
AUC ([6]; mouse, ip, plasma): 4.4 µM·h
Cmax ([6]; mouse, ip, plasma): 1440 nM
half-life ([6]; mouse, ip, plasma, read-out: Plasma T1/2 (converted)): 4.7 h
IC50 [7]: > 30000 nM
fraction unbound [8]: < 0.001
EC50 [10]: 1000 to 10000 nM
Structure (SMILES): CC1(Oc2ccc(Cl)cc2)CCN(CCOc2ccccc2C(F)(F)F)CC1 [Compound 90, 4-(4-Chlorophenoxy)-4-methyl-1-(2-(2-(trifluoromethyl)phenoxy)ethyl) piperidine]
attenuation of amphetamine induced hyperactivity (AIH) [4]: dose-dependently attenuates AIH in mice and shows efficacy at 30 mg/kg
block of D2R activation-induced reduction of GSK3-α/β (Ser 21/9) phosphorylation [5]: blocked
motoric side effects (rotarod performance) [9]: does not induce motoric side effects
